Source: ChEMBL document CHEMBL1147353, “The Isolation of Majusculamide C from the Sponge Ptilocaulis trachys Collected in Enewetak and Determination of the Absolute Configuration of the 2-Methyl-3-aminopentanoic Acid Residue” (1993)
≈ marks a conversion by molar mass, not a printed value. Numbered stars: 1 amine (or outer) side, 2 acyl side, 3 side chain; on linkers, the order of the positions; unused ones are H or OH. Square brackets hold non-standard residues; d marks the D form. Peptide text beside a SMILES is read from it. X1 = CC[C@H](C)[C@H](OC(=O)[C@@H](C)[C@@H](CC)N[*:1])C(=O)[*:2]; X2 = C[C@H](N[*:1])C(=O)C(C)(C)C(=O)[*:2]; NMeY = CN[C@@H](Cc1ccc(O)cc1)C(=O)O; NMeF = CN[C@@H](Cc1ccccc1)C(=O)O; NMeL = CN[C@@H](CC(C)C)C(=O)O; NMeV = CN[C@H](C(=O)O)C(C)C; NMeA = CN[C@@H](C)C(=O)O

System: P388
Assay: Cytotoxicity against mouse P388 cells
Format: functional
Conditions: read-out: ED50 (the source's name)

Row | SMILES | EC50
1 | CC[C@H](C)[C@@H]1OC(=O)[C@@H](C)[C@@H](CC)NC(=O)[C@H](C)NC(=O)C(C)(C)C(=O)[C@H](C)NC(=O)[C@H](Cc2ccc(OC)cc2)N(C)C(=O)[C@H](C(C)C)N(C)C(=O)CNC(=O)[C@H](CC(C)C)N(C)C(=O)CNC1=O [DOLASTATIN 11] (cyclo(A[X1]G[NMeL]G[NMeV][NMeY](Me)[X2])) | 0.0027 µg/mL (≈ 0.00274 µM)
2 | CC[C@H](C)[C@@H]1OC(=O)[C@@H](C)[C@@H](CC)NC(=O)[C@H](C)N(C)C(=O)C(C)(C)C(=O)[C@H](C)NC(=O)[C@H](Cc2ccccc2)N(C)C(=O)[C@H](C(C)C)N(C)C(=O)CNC(=O)[C@H](CC(C)C)N(C)C(=O)CNC1=O [DOLASTATIN 12] (cyclo(G[NMeL]G[NMeV][NMeF][X2][NMeA][X1])) | 0.075 µg/mL (≈ 0.0774 µM)
